The values below come from US20230293409A1, “Compositions Comprising Antimicrobials and (Bio)-Alkanediols for Skin Protection” (Symrise AG, priority 2020, published 2023).

In brackets after ≈: the same amount, converted by molar mass. Read-outs that look alike come from different tables or passages of the source.

The subject of one data set is human sebaceous glands. Kind of data set: Sebum control: micro-dissected cultured sebaceous glands, lipids normalized upon proteins. In kind it is cell-based. As to conditions: for sebum reduction: human sebaceous glands cultured six days, compared to untreated control, FIG. 2, single donor. How it is done: Additional tests were performed with human sebaceous glands in order to verify the modulatory activity of different 1,2-alkanediols on sebum secretion. Several microbial species on the skin are lipid dependent and feed on the human sebum (e.g., Corynebacterium, Propionibacterium). Accordingly, sebum reduction can indirectly support the reduction of microorganisms on the skin and in this way also indirectly support e.g., dandruff or acne reduction. For these experiments sebaceous glands had been micro-dissected and cultured with medium. The medium without any supplement served as untreated control. The medium with 5 μM Capsaicin served as positive control. Additionally, the culture medium was supplemented with different concentrations of alkanediols. After six days the sebaceous glands were collected and lipids and proteins quantified. The total lipid amount being representative of sebum production was obtained by normalizing the quantified lipids upon the quantified proteins (i.e., mg of lipids/mg of proteins).

Data set [1] is described as follows: Maximum solubility of alkanediols in water. As to conditions: ambient temperature after 24 h storage at 5° C.; visual observation. In kind it is physicochemical.
Description: For the determination of the maximum water solubility of an alkanediol, water and different concentrations of the respective alkanediol were blended by stirring. […] The determination of whether the alkanediol has dissolved in water is based entirely on visual observation.
The subject of a further data set is Staphylococcus aureus. Kind of data set: Minimum Inhibitory Concentration (MIC) test and Kull synergy index. The format is cell-based.
A further data set concerns Propionibacterium acnes. Put plainly: Minimum Inhibitory Concentration (MIC) test. In kind it is cell-based. As to conditions: Cutibacterium acnes, single substance (Tables 1, 2). Here is the method: (§1) The Minimum Inhibitory Concentration (MIC) test is a test on growth inhibition. The estimation of MICs is executed in 96 well plates. Through the comparison of bacterial growth with positive and negative controls via optical density (OD), different concentrations of given test substances are evaluated. Bacteria were cultivated under adjusted conditions based on information of the German Collection of Microorganisms and Cell Cultures (DSMZ) and stored in 50% glycerol prior to use. Afterwards, the following method was applied: Growth medium (according to microorganism) was added to each well of the microplate. Then, the test-substances were added in different concentrations, positive controls (water controls only with medium) and negative controls (benchmarks according to organism). Finally, the microorganisms were added in a concentration of 10^6 CFU/ml (CFU=colony forming units). The incubation of the microplates was carried out at appropriate conditions. According to the resulting growth, substance concentrations are labelled either as inhibiting or not and MIC is defined as the lowest concentration where a complete growth inhibition is visible. Experiments at concentration limits (highest concentration labelled as growth and lowest concentration labelled as inhibiting) are performed at least twice.

A further data set relates to Corynebacterium jeikeium. Put plainly: Minimum Inhibitory Concentration (MIC) test. In kind it is cell-based. As to conditions: single substance (Tables 1, 2). Here is the method: as §1
In another data set the test system is Candida albicans. Put plainly: Minimum Inhibitory Concentration (MIC) test. The format is cell-based. As to conditions: single substance (Tables 1, 2). Here is the method: as §1
In the next data set the test system is Staphylococcus hominis. Kind of data set: Minimum Inhibitory Concentration (MIC) test. The format is cell-based. As to conditions: single substance (Tables 1, 2). Here is the method: as §1
The test system of a further data set is Escherichia coli. Put plainly: Minimum Inhibitory Concentration (MIC) test. The format is cell-based. As to conditions: single substance (Tables 1, 2). Here is the method:
as §1

Where [2] appears, read: Table 3, Component B alone, read-out: MIC Component B in ppm.

Take `CCCCCC(O)CO` (stereo not shown) [1,2-Heptanediol, 1,2-heptanediol]: in the data set on human sebaceous glands, the sebum reduction amounted to 20%. The “Maximum solubility in water (% by weight)” value in data set [1] turned out to be 2.5 % by weight.

Take `CCCCC(CC)COCC(O)CO` (stereo not shown) [Ethylhexylglycerin]: the “MIC Component B in ppm” value in the data set on Staphylococcus aureus (Table 3, Component B alone) is given as 2000 ppm.

Consider `CCCCCCCC(=O)NO` [Caprylhydroxamic acid], for which, in the data set on Staphylococcus aureus (setting [2]), the MIC stood at 1000 µg/mL. Moreover, the “MIC Component B in ppm” value in the data set on Staphylococcus aureus (Table 4, Component B alone) worked out at 1000 ppm.

`CCCCCC(O)C(C)O` (stereo not shown) [2,3-Octanediol, 2,3-octanediol]: the “Maximum solubility in water (% by weight)” value in data set [1] came out at 1.5 % by weight.

Turning to `CCCCCCCC(=O)OCC(O)CO` (stereo not shown) [Glyceryl caprylate], the MIC in the data set with Staphylococcus aureus (setting [2]) came to 2500 µg/mL.

For the compound `CCCCCCCC(O)CO` (stereo not shown) [1,2-Nonanediol, 1,2-nonanediol], the “MIC Component A in ppm” value with Staphylococcus aureus (Table 4, Component A alone) is 1000 ppm. Moreover, the “concentration dependency of sebum reduction” value in the data set on human sebaceous glands (different concentrations, FIG. 3, single donor different from FIG. 2) was “experimentally confirmed”. Besides, the “Maximum solubility in water (% by weight)” value in data set [1] was found to be 0.1 % by weight.

Take `CC(C)(C)C(=O)C(Oc1ccc(Cl)cc1)n1ccnc1` (stereo not shown) [Climbazole]: in the data set on Staphylococcus aureus (setting [2]), the MIC was 250 µg/mL.

For `CCCCC(O)C(C)O` (stereo not shown) [2,3-Heptanediol, 2,3-heptanediol], in data set [1], the “Maximum solubility in water (% by weight)” value turned out to be 3.6 % by weight.

On to `CCCCCCC(O)C(C)O` (stereo not shown) [2,3-Nonanediol, 2,3-nonanediol], for which the sebum reduction in the data set on human sebaceous glands came out at 40%. In addition, the “Maximum solubility in water (% by weight)” value in data set [1] was determined as 0.3 % by weight.

`CCCCC(O)CO` (stereo not shown) [1,2-Hexandiol, 1,2-hexanediol]: the “Maximum solubility in water (% by weight)” value in data set [1] came to 50 % by weight.

In the case of `CCCCCCCCCC(O)CO` (stereo not shown) [1,2-Undecanediol, 1,2-undecanediol], the MIC with Staphylococcus aureus (single substance (Tables 1, 2), read-out: Minimum Inhibitory Concentration (MIC)) was 125 µg/mL; with Propionibacterium acnes it was 250 µg/mL (≈ 1330 µM); in the data set with Corynebacterium jeikeium it was 250 µg/mL (≈ 1330 µM); against Candida albicans it was 64 µg/mL (≈ 340 µM); with Staphylococcus hominis, 125 µg/mL (≈ 664 µM); in the data set on Escherichia coli, 250 µg/mL (≈ 1330 µM). The same compound had a sebum reduction with human sebaceous glands of 45%.

Turning to `OCc1ccccc1` [Benzyl Alcohol], in the data set on Staphylococcus aureus (setting [2]), the MIC is 5000 µg/mL. Also, the “MIC Component B in ppm” value in the data set on Staphylococcus aureus (Table 4, Component B alone) was 5000 ppm.

In the case of `CCCCCCC(O)CO` (stereo not shown) [1,2-Octandiol, 1,2-octanediol], the “Maximum solubility in water (% by weight)” value in data set [1] was found to be 0.5 % by weight.
